From US10377709B2, “Carboxamide derivatives and the use thereof as medicaments for the treatment of hepatitis B” (Janssen Sciences Ireland UC, priority 2013, dated 2019)

Columns and labels:
HBV [1] = assay: Anti-HBV activity in HepG2.2.15 stable transfected cell line (HBV DNA from secreted virions, realtime PCR); format: cell-based, Hepatitis B virus; conditions: HepG2.2.15 cells, 6 days of treatment, HBV DNA from secreted virions by realtime PCR
HBV [2] = assay: Anti-HBV activity in HepG2.117 inducible HBV producing cell line (intracellular HBV DNA, realtime PCR); format: cell-based, Hepatitis B virus; conditions: HepG2.117 cells (Tet-off), 3 days of treatment, intracellular HBV DNA by realtime PCR
HepG2 cells = assay: Cytotoxicity in HepG2 cells (Resazurin assay); format: cell-based; conditions: incubated 4 days, viability by Resazurin assay
[3] = Cytotoxicity in HepG2 cells (Resazurin assay); format: cell-based; conditions: human, incubated 4 days, viability by Resazurin assay
[4] = Hepatitis B virus, HepG2.117, 72 h
[5] = Hepatitis B virus, HepG2.2.15, 144 h

Which EC50 (HBV [1]) does the source give for `Cc1cc(NC(=O)C2CC(C)N(C(=O)C(=O)NC3(C)COC3)C2)ccc1F` (single isomer, unassigned) [Compound 17d, N-(4-fluoro-3-methylphenyl)-5-methyl-1-(2-((3-methyloxetan-3-yl)amino)-2-oxoacetyl)pyrrolidine-3-carboxamide] here?
The EC50 was 70 nM.

What about the EC50 (HBV [2]) of the same compound?
The EC50 was 32 nM.

And the CC50 (HepG2 cells)?
The CC50 was > 25000 nM.

For `Cc1cc(NC(=O)C2CC(C)N(C(=O)C(=O)NC3(C)COC3)C2)ccc1F` (single isomer, unassigned) [Compound 17c, N-(4-fluoro-3-methylphenyl)-5-methyl-1-(2-((3-methyloxetan-3-yl)amino)-2-oxoacetyl)pyrrolidine-3-carboxamide], which EC50 (HBV [1]) is on record?
The EC50 was > 1000 nM.

And the EC50 (HBV [2])?
Its EC50 is > 1000 nM.

What about the CC50 (HepG2 cells) of the same compound?
Its CC50 is > 25000 nM.

Which EC50 (HBV [1]) does the source give for `Cc1cc(NC(=O)C2CC(C)N(C(=O)C(=O)NC3(C)COC3)C2)ccc1F` (single isomer, unassigned) [Compound 17b, N-(4-fluoro-3-methylphenyl)-5-methyl-1-(2-((3-methyloxetan-3-yl)amino)-2-oxoacetyl)pyrrolidine-3-carboxamide] here?
Its EC50 is 918 nM.

And the EC50 (HBV [2])?
The EC50 was 796 nM.

What about the CC50 (HepG2 cells) of the same compound?
Its CC50 is > 25000 nM.

For `C[C@@H](NC(=O)C(=O)N1CC[C@H](C(=O)Nc2cc(F)c(F)c(F)c2)C1)C(F)(F)F` [Compound 32, (3S)-1-[2-oxo-2-[[(1R)-2,2,2-trifluoro-1-methyl-ethyl]amino]acetyl]-N-(3,4,5-trifluorophenyl)pyrrolidine-3-carboxamide], which EC50 (HBV [2]; [4]) is on record?
The EC50 was 52 nM.

And the CC50 at 4 days [3]?
The CC50 at 4 days was > 25000 nM.

What about the melting point of the same compound?
The melting point was 197.3 °C.

Which EC50 (HBV [1]) does the source give for `CC1C(C(=O)Nc2ccc(F)c(Cl)c2F)CCCN1C(=O)C(=O)N[C@H](C)C(F)(F)F` (single isomer, unassigned) [Compound 35d] here?
The EC50 was > 1000 nM.

And the EC50 (HBV [2])?
Its EC50 is > 1000 nM.

What about the CC50 (HepG2 cells) of the same compound?
The CC50 was > 25000 nM.

Which EC50 (HBV [1]; [5]) does the source give for `CC(C)(NC(=O)C(=O)N1CC[C@H](C(=O)Nc2cc(F)c(F)c(Cl)c2)C1)C(F)(F)F` [Compound 16, (S)-N-(3-chloro-4,5-difluorophenyl)-1-(2-oxo-2-((1,1,1-trifluoro-2-methylpropan-2-yl)amino)acetyl)pyrrolidine-3-carboxamide] here?
Its EC50 is 58 nM.

What about the EC50 (HBV [2]; [4]) of the same compound?
The EC50 was 35 nM.

What about the CC50 at 4 days [3] of the same compound?
The CC50 at 4 days was > 25000 nM.

For `CC(C)NC(=O)C(=O)N1CC[C@H](C(=O)Nc2ccc(F)c(C(F)F)c2)C1` [Compound 31, (3S)-N-[3-(difluoromethyl)-4-fluoro-phenyl]-1-[2-(isopropylamino)-2-oxo-acetyl]pyrrolidine-3-carboxamide], which EC50 (HBV [1]; [5]) is on record?
Its EC50 is 134 nM.

And the EC50 (HBV [2]; [4])?
The EC50 was 143 nM.

What about the CC50 at 4 days [3] of the same compound?
Its CC50 at 4 days is > 25000 nM.

Which EC50 (HBV [1]; [5]) does the source give for `C[C@@H](NC(=O)C(=O)N1CC[C@H](C(=O)Nc2cc(F)c(F)c(Cl)c2)C1)C(F)(F)F` [Compound 11, (S)-N-(3-chloro-4,5-difluorophenyl)-1-(2-oxo-2-(((R)-1,1,1-trifluoropropan-2-yl)amino)acetyl)pyrrolidine-3-carboxamide] here?
The EC50 was 32 nM.

What about the EC50 (HBV [2]; [4]) of the same compound?
The EC50 was 17 nM.

And the CC50 at 4 days [3]?
Its CC50 at 4 days is > 25000 nM.

Which EC50 (HBV [1]) does the source give for `CC1C(C(=O)Nc2ccc(F)c(Cl)c2F)CCCN1C(=O)C(=O)N[C@H](C)C(F)(F)F` (single isomer, unassigned) [Compound 35c] here?
Its EC50 is > 1000 nM.

And the EC50 (HBV [2])?
The EC50 was > 1000 nM.

What about the CC50 (HepG2 cells) of the same compound?
The CC50 was > 25000 nM.

Which results are given for `CC(C)NC(=O)C(=O)N1CCC(C(=O)Nc2cc(F)c(F)c(Cl)c2)[C@@H]1C` (single isomer, unassigned) [Compound 29b]?
EC50 (HBV [1]): > 1000 nM; EC50 (HBV [2]): > 1000 nM; CC50 (HepG2 cells): > 25000 nM

What does the source list for `CC[C@@H](C)NC(=O)C(=O)N1CC[C@H](C(=O)Nc2ccc(F)c(C)c2)C1` [Compound 8, (3S)-N-(4-Fluoro-3-methylphenyl)-1-[{[(1R)-1-methylpropyl]amino}(oxo)acetyl]pyrrolidine-3-carboxamide]?
EC50 (HBV [1]; [5]): 65 nM; EC50 (HBV [2]; [4]): 38 nM; CC50 at 4 days [3]: > 25000 nM

For `CC1(NC(=O)C(=O)N2CC[C@H](C(=O)Nc3cc(F)c(F)c(Br)c3)C2)COC1` [Compound 2, (S)-N-(3-bromo-4,5-difluorophenyl)-1-(2-((3-methyloxetan-3-yl)amino)-2-oxoacetyl)pyrrolidine-3-carboxamide], which EC50 (HBV [1]; [5]) is on record?
Its EC50 is 70 nM.

What about the EC50 (HBV [2]; [4]) of the same compound?
Its EC50 is 33 nM.

And the CC50 at 4 days [3]?
Its CC50 at 4 days is > 25000 nM.

With `CC(C)(C)NC(=O)C(=O)N1CC[C@H](C(=O)Nc2ccc(F)c(Cl)c2F)C1` [Compound 19, (3S)-1-[2-(tert-butylamino)-2-oxo-acetyl]-N-(3-chloro-2,4-difluoro-phenyl)pyrrolidine-3-carboxamide] as the compound, how does the EC50 (HBV [1]; [5]) read?
Its EC50 is 496 nM.

What about the EC50 (HBV [2]; [4]) of the same compound?
Its EC50 is 449 nM.

What about the CC50 at 4 days [3] of the same compound?
Its CC50 at 4 days is > 25000 nM.

Which results are given for `Cc1cc(NC(=O)[C@H]2CCN(C(=O)C(=O)N[C@H]3CCOC3)C2)ccc1F` [Compound 9, (3S)-N-(4-Fluoro-3-methylphenyl)-1-{oxo[(3S)-tetrahydrofuran-3-ylamino]-acetyl}pyrrolidine-3-carboxamide]?
EC50 (HBV [1]; [5]): 120 nM; EC50 (HBV [2]; [4]): 134 nM; CC50 at 4 days [3]: > 25000 nM

Which EC50 (HBV [1]; [5]) does the source give for `C[C@@H](NC(=O)C(=O)N1CC[C@H](C(=O)Nc2ccc(F)c(C(F)(F)F)c2)C1)C(F)(F)F` [Compound 14, (S)-N-(4-fluoro-3-(trifluoromethyl)phenyl)-1-(2-oxo-2-(((R)-1,1,1-trifluoropropan-2-yl)amino)acetyl)pyrrolidine-3-carboxamide] here?
Its EC50 is 64 nM.

What about the EC50 (HBV [2]; [4]) of the same compound?
Its EC50 is 45 nM.

And the CC50 at 4 days [3]?
The CC50 at 4 days was > 25000 nM.

Which EC50 (HBV [1]; [5]) does the source give for `Cc1cc(NC(=O)[C@H]2CCN(C(=O)C(=O)NC3(C)COC3)C2)ccc1F` [Compound 7, (3S)-N-(4-Fluoro-3-methylphenyl)-1-{[(3-methyloxetan-3-yl)amino]-(oxo)acetyl}pyrrolidine-3-carboxamide] here?
Its EC50 is 67 nM.

What about the EC50 (HBV [2]; [4]) of the same compound?
Its EC50 is 117 nM.

What about the CC50 at 4 days [3] of the same compound?
Its CC50 at 4 days is > 25000 nM.

With `CC1C(C(=O)Nc2ccc(F)c(Cl)c2F)CCCN1C(=O)C(=O)N[C@H](C)C(F)(F)F` (single isomer, unassigned) [Compound 35b] as the compound, how does the EC50 (HBV [1]) read?
The EC50 was 195 nM.

And the EC50 (HBV [2])?
Its EC50 is 483 nM.

What about the CC50 (HepG2 cells) of the same compound?
Its CC50 is > 25000 nM.
